# Assays:
# [1] = target: PI3K delta (Homo sapiens (Human), UniProt O00329); assay: Enzymatic PI3K delta isoform inhibition (lipid kinase activity, Kinase-Glo luminescence); assay type: biochemical; details: Enzymatic assay
# In short: (§1)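 ATP-depletion format: 10 nM PI3K with 5 μg/mL phosphatidylinositol and 2 μM ATP, run to ~50% ATP consumption, then Kinase-Glo added and remaining ATP read by luminescence after 5 min. IC50 from 4-parameter logistic fit, typically over 8 concentrations 10–0.003 μM.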
# [2] = target: PI3K alpha (Homo sapiens (Human), UniProt P42336); assay: Enzymatic PI3K alpha isoform inhibition (lipid kinase activity, Kinase-Glo luminescence); assay type: biochemical; details: Enzymatic assay
# Chain of PI3K alpha (P42336 other isoform, or with tags, fused parts or gaps): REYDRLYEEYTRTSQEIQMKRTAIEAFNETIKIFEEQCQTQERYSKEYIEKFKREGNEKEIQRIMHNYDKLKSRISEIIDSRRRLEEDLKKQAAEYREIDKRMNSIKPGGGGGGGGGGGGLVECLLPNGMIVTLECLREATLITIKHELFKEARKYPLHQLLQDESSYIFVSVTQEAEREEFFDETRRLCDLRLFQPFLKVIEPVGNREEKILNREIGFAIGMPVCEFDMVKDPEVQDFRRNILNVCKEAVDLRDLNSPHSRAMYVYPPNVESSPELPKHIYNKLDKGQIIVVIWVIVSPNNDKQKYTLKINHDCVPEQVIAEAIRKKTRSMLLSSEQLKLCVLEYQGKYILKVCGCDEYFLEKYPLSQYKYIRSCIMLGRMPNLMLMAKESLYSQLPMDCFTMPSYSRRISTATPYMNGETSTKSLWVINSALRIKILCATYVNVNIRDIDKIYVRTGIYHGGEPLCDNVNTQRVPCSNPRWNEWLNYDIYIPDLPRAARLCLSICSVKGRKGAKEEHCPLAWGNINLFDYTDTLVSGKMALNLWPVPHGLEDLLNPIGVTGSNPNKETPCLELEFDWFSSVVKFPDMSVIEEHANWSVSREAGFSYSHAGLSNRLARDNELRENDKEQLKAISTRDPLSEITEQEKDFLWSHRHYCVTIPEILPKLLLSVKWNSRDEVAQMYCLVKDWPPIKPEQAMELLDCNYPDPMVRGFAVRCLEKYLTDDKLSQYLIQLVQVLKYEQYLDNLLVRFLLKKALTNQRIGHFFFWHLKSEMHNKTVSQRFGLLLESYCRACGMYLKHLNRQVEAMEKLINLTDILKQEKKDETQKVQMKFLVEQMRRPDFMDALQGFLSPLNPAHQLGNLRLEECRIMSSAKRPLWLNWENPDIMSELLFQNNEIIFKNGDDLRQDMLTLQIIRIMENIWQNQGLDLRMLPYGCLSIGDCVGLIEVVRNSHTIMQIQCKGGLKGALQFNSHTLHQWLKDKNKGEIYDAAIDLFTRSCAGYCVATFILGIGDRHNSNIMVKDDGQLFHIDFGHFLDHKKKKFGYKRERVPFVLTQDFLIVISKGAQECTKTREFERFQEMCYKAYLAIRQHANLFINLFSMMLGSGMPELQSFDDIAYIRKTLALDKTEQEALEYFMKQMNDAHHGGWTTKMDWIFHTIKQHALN
# In short: as §1
# Chain of PI3K delta (O00329 other isoform, or with tags, fused parts or gaps linker GGGGGG): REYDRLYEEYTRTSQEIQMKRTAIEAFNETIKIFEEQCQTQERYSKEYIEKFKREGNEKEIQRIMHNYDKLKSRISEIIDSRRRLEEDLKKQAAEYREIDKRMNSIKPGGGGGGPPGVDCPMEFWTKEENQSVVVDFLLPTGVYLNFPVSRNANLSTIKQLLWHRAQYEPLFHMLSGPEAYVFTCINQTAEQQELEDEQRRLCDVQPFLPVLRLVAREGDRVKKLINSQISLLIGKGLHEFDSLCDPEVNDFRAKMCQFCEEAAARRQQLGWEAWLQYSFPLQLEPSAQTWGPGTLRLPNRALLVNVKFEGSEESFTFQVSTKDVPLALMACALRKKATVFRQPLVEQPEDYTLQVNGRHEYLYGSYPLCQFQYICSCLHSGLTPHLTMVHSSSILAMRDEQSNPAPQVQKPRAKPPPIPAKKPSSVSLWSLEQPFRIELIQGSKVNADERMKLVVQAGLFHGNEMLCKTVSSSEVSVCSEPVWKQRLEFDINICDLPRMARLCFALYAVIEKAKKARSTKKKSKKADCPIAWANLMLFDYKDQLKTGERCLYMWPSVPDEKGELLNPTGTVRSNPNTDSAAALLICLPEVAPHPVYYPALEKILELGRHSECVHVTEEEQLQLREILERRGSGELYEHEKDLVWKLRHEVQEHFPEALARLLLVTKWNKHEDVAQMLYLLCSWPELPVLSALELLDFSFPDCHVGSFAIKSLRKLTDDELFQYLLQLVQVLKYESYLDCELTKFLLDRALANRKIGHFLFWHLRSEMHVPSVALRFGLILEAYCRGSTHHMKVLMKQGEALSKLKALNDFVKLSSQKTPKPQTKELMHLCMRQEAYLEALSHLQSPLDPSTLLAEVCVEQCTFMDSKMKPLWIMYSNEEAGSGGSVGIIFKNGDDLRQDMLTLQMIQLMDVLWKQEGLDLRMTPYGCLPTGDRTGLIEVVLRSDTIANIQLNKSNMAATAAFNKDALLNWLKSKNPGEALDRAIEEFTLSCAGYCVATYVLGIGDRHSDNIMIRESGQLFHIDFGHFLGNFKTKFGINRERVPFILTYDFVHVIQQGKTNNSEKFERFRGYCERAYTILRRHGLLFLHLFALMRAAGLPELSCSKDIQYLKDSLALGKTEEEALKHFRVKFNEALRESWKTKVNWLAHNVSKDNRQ
SMILES,IC50 [1],IC50 [2]
"CCC(=O)N1CC[C@H](Oc2ccc3c(c2)N(c2ccc(C)c(C#N)c2)CCO3)C1 [Example A40, 2-Methyl-5-[6-((S)-1-propionyl-pyrrolidin-3-yloxy)-2,3-dihydro-benzo[1,4]oxazin-4-yl]-benzonitrile]",462 nM,5360 nM
"Cc1cc(N2CCOc3ccc(O[C@H]4CCN(C(=O)C5CCOC(C)(C)C5)C4)cc32)cnc1S(C)(=O)=O (stereo partly drawn) [Example B26, (2,2-Dimethyl-tetrahydro-pyran-4-yl)-{(S)-3-[4-(6-methanesulfonyl-5-methyl-pyridin-3-yl)-3,4-dihydro-2H-benzo[1,4]oxazin-6-yloxy]-pyrrolidin-1-yl}-methanone]",< 9 nM,281 nM
"CCC(=O)N1CC[C@H](Oc2ccc3c(c2)N(c2cnc(Cl)c(OC)c2)CCO3)C1 [Example B55, 1-{(S)-3-[4-(6-Chloro-5-methoxy-pyridin-3-yl)-3,4-dihydro-2H-benzo[1,4]oxazin-6-yloxy]-pyrrolidin-1-yl}-propan-1-one]",65 nM,3850 nM
"COc1cc(N2CCOc3ccc(O[C@H]4CCN(C(=O)c5ccc(=O)[nH]c5)C4)cc32)cnc1Cl [Example B63, 5-{(S)-3-[4-(6-Chloro-5-methoxy-pyridin-3-yl)-3,4-dihydro-2H-benzo[1,4]oxazin-6-yloxy]-pyrrolidine-1-carbonyl}-1H-pyridin-2-one]",68 nM,1520 nM
"COc1ncc(N2CCOc3ccc(O[C@H]4CCN(C(=O)c5cnn6cccnc56)C4)cc32)cc1C#N [Example C22, 2-Methoxy-5-{6-[(S)-1-(pyrazolo[1,5-a]pyrimidine-3-carbonyl)-pyrrolidin-3-yloxy]-2,3-dihydro-benzo[1,4]oxazin-4-yl}-nicotinonitrile]",20 nM,202 nM
"COc1ncc(N2CCOc3ccc(O[C@H]4CCN(C(=O)C5CCS(=O)(=O)C5)C4)cc32)cc1C (stereo partly drawn) [Example B13, (1,1-Dioxo-tetrahydro-1lambda*6*-thiophen-3-yl)-{(S)-3-[4-(6-methoxy-5-methyl-pyridin-3-yl)-3,4-dihydro-2H-benzo[1,4]oxazin-6-yloxy]-pyrrolidin-1-yl}-methanone]",62 nM,862 nM
"Cc1cc(N2CCOc3ccc(O[C@H]4CCN(S(=O)(=O)C5CCOCC5)C4)cc32)cnc1S(C)(=O)=O [Example B81, 4-(6-Methanesulfonyl-5-methyl-pyridin-3-yl)-6-[(S)-1-(tetrahydro-pyran-4-sulfonyl)-pyrrolidin-3-yloxy]-3,4-dihydro-2H-benzo[1,4]oxazine]",81 nM,482 nM
"CS(=O)(=O)c1ncc(N2CCOc3ccc(O[C@H]4CCN(C(=O)C5CCOCC5)C4)cc32)cc1C(F)(F)F [Example B69, {(S)-3-[4-(6-Methanesulfonyl-5-trifluoromethyl-pyridin-3-yl)-3,4-dihydro-2H-benzo[1,4]oxazin-6-yloxy]-pyrrolidin-1-yl}-(tetrahydro-pyran-4-yl)-methanone]",5 nM,189 nM
"CCC(=O)N1CC[C@H](Oc2ccc3c(c2)N(c2cnc(OC)c(S(=O)(=O)N4CCN(C)CC4)c2)CCO3)C1 [Example A18, 1-((S)-3-{4-[6-Methoxy-5-(4-methyl-piperazine-1-sulfonyl)-pyridin-3-yl]-3,4-dihydro-2H-benzo[1,4]oxazin-6-yloxy}-pyrrolidin-1-yl)-propan-1-one]",11 nM,895 nM
"COc1ncc(N2c3cc(O[C@H]4CCN(C(=O)C5CCOCC5)C4)ccc3OCC2C)cc1C#N (stereo partly drawn) [Example C5, 2-Methoxy-5-{3-methyl-6-[(S)-1-(tetrahydro-pyran-4-carbonyl)-pyrrolidin-3-yloxy]-2,3-dihydro-benzo[1,4]oxazin-4-yl}-nicotinonitrile]",95 nM,5510 nM
"CS(=O)(=O)c1ccc(N2CCOc3ccc(O[C@H]4CCN(C(=O)C5CCOCC5)C4)cc32)cn1 [Example A43, {(S)-3-[4-(6-Methanesulfonyl-pyridin-3-yl)-3,4-dihydro-2H-benzo[1,4]oxazin-6-yloxy]-pyrrolidin-1-yl}-(tetrahydro-pyran-4-yl)-methanone]",54 nM,4690 nM
"COc1ncc(N2CCOc3ccc(O[C@H]4CCN(C(=O)C5=CC(=O)CC(C)(C)O5)C4)cc32)cc1C#N [Example C21, 5-{6-[(S)-1-(6,6-Dimethyl-4-oxo-5,6-dihydro-4H-pyran-2-carbonyl)-pyrrolidin-3-yloxy]-2,3-dihydro-benzo[1,4]oxazin-4-yl}-2-methoxy-nicotinonitrile]",28 nM,698 nM
"COc1ncc(N2CCOc3ccc(O[C@H]4CCN(C(=O)C5CCOC5)C4)cc32)cc1C (stereo partly drawn) [Example B15, {(S)-3-[4-(6-Methoxy-5-methyl-pyridin-3-yl)-3,4-dihydro-2H-benzo[1,4]oxazin-6-yloxy]-pyrrolidin-1-yl}-(tetrahydro-furan-3-yl)-methanone]",31 nM,2650 nM
"CCC(=O)N1CC[C@H](Oc2ccc3c(c2)N(c2cncc(S(=O)(=O)N(C)OC)c2)CCO3)C1 [Example A30, 5-[6-((S)-1-Propionyl-pyrrolidin-3-yloxy)-2,3-dihydro-benzo[1,4]oxazin-4-yl]-pyridine-3-sulfonic acid methoxy-methyl-amide]",31 nM,260 nM
"COc1cc(N2CCOc3ccc(O[C@H]4CCN(C(=O)C5CCS(=O)(=O)CC5)C4)cc32)cnc1OC [Example B47, {(S)-3-[4-(5,6-Dimethoxy-pyridin-3-yl)-3,4-dihydro-2H-benzo[1,4]oxazin-6-yloxy]-pyrrolidin-1-yl}-(1,1-dioxo-hexahydro-1lambda*6*-thiopyran-4-yl)-methanone]",10.7 nM,241 nM

# Now from value to molecule:
IC50 [1],IC50 [2],SMILES
15 nM,494 nM,"COc1ncc(N2CCOc3ccc(O[C@H]4CCN(C(=O)CC(C)(C)C)C4)cc32)cc1C#N [Example D9, 5-{6-[(S)-1-(3,3-Dimethyl-butyryl)-pyrrolidin-3-yloxy]-2,3-dihydro-benzo[1,4]oxazin-4-yl}-2-methoxy-nicotinonitrile]"
5 nM,411 nM,"COc1ncc(N2CCOc3ccc(O[C@H]4CCN(C(=O)C5CCOC5)C4)cc32)cc1C#N (single isomer, unassigned) [Example D28]"
7 nM,206 nM,"COc1ncc(N2CCOc3ccc(O[C@H]4CCN(C(=O)c5ccc(=O)[nH]c5)C4)cc32)cc1C#N [Example D20, 2-Methoxy-5-{6-[(S)-1-(6-oxo-1,6-dihydro-pyridine-3-carbonyl)-pyrrolidin-3-yloxy]-2,3-dihydro-benzo[1,4]oxazin-4-yl}-nicotinonitrile]"
9 nM,273 nM,"COc1ncc(N2CCOc3ccc(O[C@H]4CCN(C(=O)N5CCOCC5)C4)cc32)cc1C#N [Example D34, 2-Methoxy-5-{6-[(S)-1-(morpholine-4-carbonyl)-pyrrolidin-3-yloxy]-2,3-dihydro-benzo[1,4]oxazin-4-yl}-nicotinonitrile]"
8 nM,559 nM,"Cc1cc(N2CCOc3ccc(O[C@H]4CCN(C(=O)C5COCCO5)C4)cc32)cnc1S(C)(=O)=O (single isomer, unassigned) [Example H3]"

# From US9539260B2, “Dihydro-benzo-oxazine and dihydro-pyrido-oxazine derivatives” (Novartis AG, priority 2012, dated 2017)
